ChEMBL document CHEMBL5696441 (Nat Chem Biol, 2011)
The source made the active and inactive calls. The calls are words filed in the database; no cut-off is given here.

Tested on: THP-1
Assay: Inhibition of ERK in human THP-1 cells assessed as CREB phosphorylation at Ser133 level at 4 uM preincubated for 30 mins in the presence of PMA stimulation for 1 hrs by western blot analysis
Format: cell-based

**Q.** How did the inhibition turn out when `C[S+]([O-])c1ccc(-c2nc(-c3ccc(F)cc3)c(-c3ccncc3)[nH]2)cc1` (stereo unspecified) was run?
**A.** Its inhibition is “Active”.
